For one assay, the system named is Escherichia coli CMY-7. The assay is described as follows: MIC, characterised β-lactamase producing strain (Example 5, Tables 5-7). In kind it is cell-based. How it is done: The MIC experiments were performed in duplicate in 96-well microtiter plates using CAMHB. […] The bacterial suspension with final inoculum 10^5 CFU/mL was transferred to the test medium containing the antibacterial substances. In each well of a 96-well microtiter plate was combined 50 μL of bacterial inoculum, 50 μL of antibiotic dilutions (or media for determination of the MIC of the antibiotic in the absence of test compound). Each plate included 4 wells with no bacterial inoculum (negative control) and 4 wells with no test compound and no antibiotic (positive control). The plates were incubated at 35° C. for 24 h. Purity check and colony counts on each inoculum suspension was performed to ensure that the final inoculum concentration routinely obtained closely approximates 5×10^5 CFU/mL. In addition the assay is routinely monitored by testing standard antibiotics and ensuring that MIC values are within the recommended ranges for the respective strains.
(§1) This test permits comparisons to be made between bacterial growth in the presence of antibiotic alone and bacterial growth in the presence of both an antibiotic and a novel (test) compound.

For a further assay, the system named is E. coli SHV-5. The assay is described as follows: Synergy MIC, inhibitor at 4 μg/mL (Example 4). It is filed as cell-based. The note with it: SHV-5, class A, inhibitor constant 4 μg/mL.
Assay [1] concerns Klebsiella pneumoniae TEM-30. Description: MIC, characterised β-lactamase producing strain (Example 5, Tables 5-7). It is filed as cell-based. As to the method: (§2) The MIC experiments were performed in duplicate in 96-well microtiter plates using CAMHB. Serial twofold dilutions of each antibiotic either alone or in combination with constant concentration ratio of a β-lactamase inhibitor (2:1) were prepared in CAMHB. The bacterial suspension with final inoculum 10^5 CFU/mL was transferred to the test medium containing the antibacterial substances. In each well of a 96-well microtiter plate was combined 50 μL of bacterial inoculum, 50 μL of antibiotic dilutions (or media for determination of the MIC of the antibiotic in the absence of test compound). Each plate included 4 wells with no bacterial inoculum (negative control) and 4 wells with no test compound and no antibiotic (positive control). The plates were incubated at 35° C. for 24 h. Purity check and colony counts on each inoculum suspension was performed to ensure that the final inoculum concentration routinely obtained closely approximates 5×10^5 CFU/mL. In addition the assay is routinely monitored by testing standard antibiotics and ensuring that MIC values are within the recommended ranges for the respective strains.
as §1

A further assay concerns Escherichia coli TEM-34. Described as above. In kind it is cell-based. How it is done: as §2, §1
In assay [2] the test system is Pseudomonas aeruginosa NPS-1. Described as above. It is filed as cell-based. How it is done: as §2, §1
In assay [3] the test system is Klebsiella pneumoniae TEM-1, SHV-5. Described as above. It is filed as cell-based. As to the method: as §2, §1
The test system of another assay is Salmonella spp. DHA-1. Described as above. It is filed as cell-based. How it is done: as §2, §1
The test system of assay [4] is Klebsiella pneumoniae ATCC 700603. The assay is described as follows: MIC broth microdilution (Example 2). Conditions: Klebsiella pneumoniae ATCC 700603 producing SHV-18. On the technique in general: Dilution methods test growth across graded concentrations, often in twofold steps.
The next assay relates to Escherichia coli TEM-32. Description: MIC, characterised β-lactamase producing strain (Example 5, Tables 5-7). It is filed as cell-based. How it is done:
as §2, §1

The test system of a further assay is Escherichia coli OXA-4. The description is as above. It is filed as cell-based. How it is done: as §2, §1
For assay [5], the system named is Aeromonas hydrophila AER-1. Described as above. It is filed as cell-based. How it is done: as §2, §1
A further assay deals with K. pneumoniae SHV. The assay is described as follows: Synergy MIC, inhibitor at 4 μg/mL (Example 3). In kind it is cell-based. Conditions: β-lactamase SHV, inhibitor constant 4 μg/mL. How it is done:
(§3) Stock solutions of the test compounds and control antibiotics were prepared in distilled water according to the NCCLS guidelines [Methods for dilution antimicrobial tests for bacteria that grow aerobically. NCCLS document M7-A5; 2000; vol. 19. National Committee for Clinical Laboratory Standards, Villanova, Pa.]. All drug weights were corrected for salt forms and refer to the pure drug substance.
(§4) All tested strains and Clinical isolates were either purchased from the American Type Culture Collection (ATCC), or from the in-house company culture collection.
(§5) Stock cultures were prepared from broth cultures grown at 35° C. for 18-22 h without agitation and subsequent addition of 5% DMSO (v/v, final concentration) as cryoprotectant and stored frozen in liquid nitrogen. Mueller-Hinton II broth (MHBII) (BBL Cockeysville, Md.) was used for the testing procedure.
(§6) The in vitro activities of the antibiotics were determined by the broth microdilution method and agar dilution technique as recommended by CLSI guidelines. The MIC experiments were performed in duplicate in 96-well microtiter plates using MHB. Serial twofold dilutions of each antibiotic either alone or in combination with a constant amount (4 μg/mL) of a β-lactamase inhibitor were prepared in MHBII broth. A sterile pipette tip was used to mix the contents of each well (one tip was used going from the low to the high concentration in the same column). The bacterial suspension with final inoculum 10^5 CFU/mL was transferred to the test medium containing the antibacterial substances by a multipoint inoculator (Dynatech, Chantilly, Va., USA). The plates were then incubated at 35° C. for 24 h.
(§7) Representative compound of Formula (I) was evaluated against the serine-based Class A β-lactamases including TEM-type, SHV-type extended spectrum β-lactamases (ESBL) and various non-ESBL enzymes of enterobacteriaceae as well as BRO-type enzymes of Moraxella catarrhalis and penicillinases of Staphylococcus aureus.

The test system of another assay is C. freundii SHV-5. Description: Synergy MIC, inhibitor at 4 μg/mL (Example 3). Conditions: β-lactamase SHV-5 (Table 3 r10), inhibitor constant 4 μg/mL. In kind it is cell-based. How it is done:
as §3, §4, §5, §6, §7

Another assay relates to C. freundii ESBL. The assay is described as follows: Synergy MIC, inhibitor at 4 μg/mL (Example 3). It is filed as cell-based. Conditions: ESBL (Table 3 r25), inhibitor constant 4 μg/mL. How it is done:
as §3, §4, §5, §6, §7

A further assay relates to K. oxytoca ESBL. The assay is described as follows: Synergy MIC, inhibitor at 4 μg/mL (Example 3). It is filed as cell-based. The note with it: ESBL (Table 3 r26), inhibitor constant 4 μg/mL. How it is done: as §3, §4, §5, §6, §7
A further assay has as its system E. coli ESBL. The assay is described as follows: Synergy MIC, inhibitor at 4 μg/mL (Example 3). In kind it is cell-based. The note with it: inhibitor constant 4 μg/mL. As to the method: as §3, §4, §5, §6, §7

Structures are written as SMILES.

Turning to `CO/N=C(\C(=O)N[C@@H]1C(=O)N2C(C(=O)O)=C(COC(C)=O)CS[C@H]12)c1csc(N)n1` [cefotaxime], the MIC (as a rule, the lowest concentration that inhibits growth of the organism) was 32 µg/mL with Escherichia coli CMY-7 (Table 6, LK-157 at constant 4 μg/mL in combination); greater than 25.6 µg/mL in the assay on E. coli SHV-5; 0.031 µg/mL in assay [1] (Table 6, Klebsiella pneumoniae TEM-30, LK-157 at constant 4 μg/mL in combination); 0.031 µg/mL in the assay with Escherichia coli TEM-34 (Table 6, Escherichia coli TEM-34, LK-157 at constant 4 μg/mL in combination); 16 µg/mL in assay [2] (Table 6, Pseudomonas aeruginosa NPS-1, LK-157 at constant 4 μg/mL in combination); 32 µg/mL in [3] (Table 6, Klebsiella pneumoniae TEM-1, SHV-5, LK-157 at constant 4 μg/mL in combination). In addition, in the assay with Salmonella spp. DHA-1 (Table 6, Salmonella spp. DHA-1, LK-157 at constant 4 μg/mL in combination), the MIC was 32 µg/mL. For the same compound, in assay [4], the “susceptibility of the strain to the antibiotic” value is on record as “susceptible”.

For the compound `CC(C)(O/N=C(\C(=O)N[C@@H]1C(=O)N2C(C(=O)[O-])=C(C[n+]3ccccc3)CS[C@H]12)c1csc(N)n1)C(=O)O` [ceftazidime], the MIC entry with Escherichia coli CMY-7 (Table 7, combination at constant concentration ratio (2:1)) is “≧128 μg/mL”; in the assay on Escherichia coli TEM-32 (Table 7, Escherichia coli TEM-32, combination at constant concentration ratio (2:1)) it was 0.25 µg/mL; with Escherichia coli OXA-4 (Table 7, Escherichia coli OXA-4, combination at constant concentration ratio (2:1)) it was 0.5 µg/mL; in [5] (Table 7, Aeromonas hydrophila AER-1, combination at constant concentration ratio (2:1)), 0.25 µg/mL; in the assay on K. pneumoniae SHV (first listed (Table 3 r12)), greater than 25.6 µg/mL; with K. pneumoniae SHV (second listed (Table 3 r13)) it was 12.8 µg/mL. The MIC in the assay with C. freundii SHV-5 was greater than 25.6 µg/mL; in the assay with C. freundii ESBL, greater than 25.6 µg/mL; in the assay on K. oxytoca ESBL it was 0.4 µg/mL; in the assay on E. coli ESBL (first listed (Table 3 r21)), 1.6 µg/mL; with E. coli ESBL (fourth listed (Table 3 r24)) it was greater than 25.6 µg/mL; in the assay with E. coli ESBL (second listed (Table 3 r22)), 0.4 µg/mL. Further, the MIC in the assay with E. coli ESBL (third listed (Table 3 r23)) worked out at 0.2 µg/mL. Further, the “susceptibility of the strain to the antibiotic” value in assay [4] is listed as “resistant”.

`CO/N=C(\C(=O)N[C@@H]1C(=O)N2C(C(=O)[O-])=C(C[N+]3(C)CCCC3)CS[C@H]12)c1csc(N)n1` [cefepime]: the MIC in the assay on E. coli SHV-5 was 25.6 µg/mL; in assay [1] (Klebsiella pneumoniae TEM-30, functional group 2br, LK-157 in combination constant 4 μg/mL) it was 0.125 µg/mL; in the assay with Escherichia coli TEM-34 (Escherichia coli TEM-34, functional group 2br, LK-157 in combination constant 4 μg/mL), 0.063 µg/mL; in the assay with Escherichia coli TEM-32 (Escherichia coli TEM-32, functional group 2br, LK-157 in combination constant 4 μg/mL), 0.125 µg/mL; in assay [2] (Pseudomonas aeruginosa NPS-1, functional group 2a, LK-157 in combination constant 4 μg/mL), 8 µg/mL; with Escherichia coli OXA-4 (Escherichia coli OXA-4, functional group 2d, LK-157 in combination constant 4 μg/mL), 0.5 µg/mL. Moreover, the MIC in assay [3] (Klebsiella pneumoniae TEM-1, SHV-5, functional group 2b, 2e, LK-157 in combination constant 4 μg/mL) stood at 16 µg/mL; in [5] (Aeromonas hydrophila AER-1, functional group 2c, LK-157 in combination constant 4 μg/mL), 0.5 µg/mL; in the assay on Salmonella spp. DHA-1 (Salmonella spp. DHA-1, functional group 1, LK-157 in combination constant 4 μg/mL), 1 µg/mL.

These data come from patent US20100029604A1, “ANTIBACTERIAL COMBINATION AND ITS USE” (priority 2007, published 2010).
